Data as given in patent US12545704B2, “Peptide for treating inflammation and wounds” (NIBEC CO., LTD., priority 2019, dated 2026).
No end group written: not given here.

Assays:
E-cadherin = assay: Real-time RT-PCR of wound-healing marker E-cadherin in colonic epithelial cells; type: cell-based; conditions: Caco-2 cells; 50 and 100 μg/ml; 3 days; FIG. 4
Description: (§1) In order to confirm the expression level of the wound-healing marker in colonic epithelial cells (Caco-2 cell, ATCC® HTB-37™) by the peptide according to the present invention, colonic epithelial cells were dispensed in an amount of 5×10^6 cells/well in a 6-well plate and then cultured for 24 hours in DMEM (Dulbecco's Modified Eagle Medium, Gibco). The cells were treated with the peptides of SEQ ID NOS: 1, 2, and 3 at concentrations of 50 and 100 μg/ml and then cultured for up to 3 days. After 3 days, the cells were harvested and the gene expression levels of E-cadherin protein, which is highly expressed in colonic epithelial cells, and ZO-1 protein, which is highly expressed at the tight junction between colonic epithelial cells, were measured through real-time RT-PCR.
(§2) RNA was extracted from the obtained cells using TRIzol, and cDNA was synthesized using a kit from Thermo Scientific (cat. No. K1641). The same amount of cDNA was amplified by 40 cycles at 95° C.-60° C. using a SYBR green PCR master mix and a StepOnePlus™ Real-Time PCR System available from Applied Biosystems, and the ΔΔct values of individual groups were compared. The nucleotide sequences of the PCR primers used for amplification of each gene are as follows.

type IV collagen = assay: Slot blotting, selectivity to collagen types: type IV (Experimental Example 2); type: binding; conditions: peptide up to 100 μg/mL, FIG. 3
Description: (§3) In order to confirm the selectivity of peptides of SEQ ID NOS: 1 to 3 to collagen types, slot blotting was performed for types I, IV and VII collagen. The NC membrane was activated with TBST, and the peptides of SEQ ID NOS: 1, 2 and 3 were placed in each well at different concentrations (5, 10, 25, 50, and 100 μg/mL) and allowed to bind to the NC membrane in a vacuum for 2 hours. A 1% solution of each of types I, IV and VII collagen (MyBioSource, Inc., San Diego, CA, USA, MBS2018615) was added to the peptide-bound membrane and allowed to bind to the membrane in a vacuum for 2 hours. The membrane was washed with TBST, and the membrane to which the peptides and types I, IV, and VII collagen were attached was allowed to react with a primary rabbit anti-human type VII collagen antibody (MyBioSource, Inc., San Diego, CA, USA, MBS2004594) at a dilution ratio of 1:800 and with a secondary antibody goat anti-rabbit Ig G (BETHYL Lab., Montgomery, TX, USA, A90-116P) at a dilution ratio of 1:5000. The reacted membrane was washed with TBST, and a chemiluminescence test was performed using WEST-one.

type I collagen = biological target: T1, type I collagen (Homo sapiens, UniProt P02452+P08123); assay: Slot blotting, selectivity to collagen types: type I (Experimental Example 2); type: binding; conditions: peptide at 5, 10, 25, 50 and 100 μg/mL, FIG. 3
T1 construct: purchased MyBioSource, Inc
Description: as §3

Caco-2 cells = assay: Scratch migration of colonic epithelial cells; type: cell-based; conditions: Caco-2 scratch, 100 μM, FIG. 6; for migration area: 2nd day; for cell migration compared to cells not treated with the peptide: up to 48 hours
Description: In order to measure cell migration ability, Caco-2 cells (1×10^6 cells) were placed in a 6-well plate and cultured in DMEM supplemented with 10% fetal bovine serum (FBS) and 1% antibiotic-antimycotic solution (Gibco, Grand Island, N.Y., USA). The cells were washed with PBS and allowed to stand overnight in a medium containing 2% FBS. The central portion of the cell layer was scratched using a sterile 200 μl plastic pipette tip. The scratched cell layer was washed twice with PBS to remove unadhered cells. Each of the peptides of SEQ ID NOS: […] at a concentration of 100 μM to the medium, followed by culture for up to 48 hours. The extent of cell migration toward the center from the scratched edges was measured using an Olympus CKX41 inverted microscope (magnification: ×20).

[1] = system: colonic epithelial cells (Caco-2 cell); assay: Proliferation of colonic epithelial cells (CCK-8); type: cell-based; conditions: 100 μM, 3rd day, FIG. 5
Description: In order to confirm the proliferation and migration in colonic epithelial cells (Caco-2 cell, ATCC® HTB-37™) by the peptide according to the present invention, the cells were dispensed in an amount of 5×10^3 cells/well in a 96-well plate and then cultured for 24 hours in DMEM (Dulbecco's Modified Eagle Medium, Gibco). The peptides (SEQ ID NOS: 1, 2, and 3) were dispensed at a concentration of 100 μM in the cells and then cultured for up to 3 days at intervals of 1 day. The cell count was measured using a CCK-8 (Cell Counting Kit-8, CK04, Dojindo Lab.). After 1, 2, and 3 days, the medium containing the peptide was removed, 10% of a CCK-8 solution was added to fresh DMEM, and 100 μl thereof was then dispensed. After 1 hour and 30 minutes, absorbance was measured at 450 nm.

type VII collagen [2] = biological target: T2, type VII collagen (Homo sapiens, UniProt Q02388); assay: Slot blotting, binding ability to type VII collagen (Experimental Example 1); conditions: peptide at 5, 10 and 20 μg/mL, FIG. 2
T2 construct: purchased MyBioSource, Inc. MBS2018615
Description: Slot blotting was performed to confirm the ability of the peptides of SEQ ID NOS: 1 and 3 to bind to type VII collagen. The NC membrane was activated with TBST, and the peptides of SEQ ID NOS: 1 and 3 were placed in each well at different concentrations (5, 10, and 20 μg/mL) and allowed to bind to the NC membrane in a vacuum for 2 hours. A 1% solution of type VII collagen (MyBioSource, Inc., San Diego, CA, USA, MBS2018615) was added to the peptide-bound membrane and allowed to bind to the membrane in a vacuum for 2 hours. After washing the membrane with TBST, the membrane to which the peptide and type VII collagen were attached was allowed to react with a primary rabbit anti-human type VII collagen antibody (MyBioSource, Inc., San Diego, CA, USA, MBS2004594) at a dilution ratio of 1:800 and with a secondary antibody goat anti-rabbit Ig G (BETHYL Lab., Montgomery, TX, USA, A90-116P) at a dilution ratio of 1:5000. The reacted membrane was washed with TBST, and a chemiluminescence test was performed using WEST-one. Based on the results of measurement of the ability of the peptide to bind to type VII collagen depending on the peptide concentration, when the concentration of the peptide of SEQ ID NO: 1 was 10 μg/mL or more or the concentration of the peptide of SEQ ID NO: 3 was 5 μg/mL or more, the ability thereof to bind to type VII collagen was confirmed (FIG. 2).

type VII collagen [3] = biological target: T2, type VII collagen; assay: Slot blotting, selectivity to collagen types: type VII (Experimental Example 2); type: binding; conditions: for peptide concentration at which binding to type VII collagen was observed: peptide at 5, 10, 25, 50 and 100 μg/mL, FIG. 3
Description: as §3

ZO-1 = assay: Real-time RT-PCR of wound-healing marker ZO-1 in colonic epithelial cells; type: cell-based; conditions: Caco-2 cells; 50 and 100 μg/ml; 3 days; FIG. 4
Description: as §1, §2

[4] = IVIS distribution of Cy5.5-labeled peptide in DSS-induced acute inflammatory bowel disease model; type: in vivo; conditions: IP injection, DSS mice, 30, 60 and 180 minutes, FIG. 7
Source text: In order to confirm distribution of the synthesized peptide to the colon, inflammation was induced in mice using 5% DSS as drinking water for 7 days, after which the Cy5.5-labeled peptide of SEQ ID NO: 1 was IP-injected thereto.

integrin beta 1 = biological target: T3, integrin beta 1 (Mus musculus, UniProt P09055); assay: Confocal co-localization of Cy5.5-labeled peptide with integrin beta 1 in colon tissue; type: in vivo, mice; conditions: 1 hour after injection, FIG. 11
T3 construct: from tissue; host or cells: colon of mice with DSS-induced colitis
Source text: In order to confirm co-localization of synthesized peptide to the colon, inflammation was induced in mice using 5% DSS in drinking water for 7 days, followed by the cy5.5-labeled peptide of SEQ ID NO: 1 was […] thereto. An hour after injection, each mouse was sacrificed and the colon tissue was isolated for analysis. Excised colons were fixed with 4% paraformaldehyde, and made frozen tissue block with Tissue-Tek® O.C.T. compound (4583, Sakura). Frozen tissue block was sectioned using clinical cryostat (CM1950, Leica) and placed on microscope slides.
Each sectioned tissue slides were stained for immunofluorescence. In brief, sectioned slides were permeabilized with 0.5% Triton X-100 (9036-19-5, Sigma-Aldrich) in PBS for 10 min. Next, 5% BSA in PBS were treated 30 minutes for blocking, followed by overnight incubation of anti-integrin beta 1 diluted in blocking buffer. After washing the slides, Alexa Fluor 488 conjugated anti-mouse secondary antibody (A-11001, Thermo Fisher Scientific) was diluted and incubated for an hour, and DAPI staining. Slides were mounted for imaging in confocal microscopy (LSM700, Carl Zeiss).

[5] = system: DSS-induced acute inflammatory bowel disease; assay: Therapeutic effect in animal model of DSS-induced acute inflammatory bowel disease; type: in vivo, ICR mice
Description: In order to confirm the therapeutic effect of the synthesized peptide in animals, acute inflammatory bowel disease was induced with DSS in ICR mice (Orient Bio), and simultaneously, the synthesized peptide was injected thereto. Inflammation was induced in mice using 5% DSS as drinking water for 7 days, and simultaneously, the synthesized peptide was IP-injected thereto. The normal group (Normal, n=6) was not treated with DSS, and in the untreated group (No treatment, n=6), only DSS was used, and no drug was injected. The positive control group (SAHA, Sigma-Aldrich, 25 mg/kg, n=6), the immunomodulatory control group (Anti-TNF-a antibody, Pfizer, 1 mg/kg, n=6), and the peptide of SEQ ID NO: 1 (50 mg/kg, n=6) were injected once daily. After 7 days, mice were sacrificed by CO2 hyperventilation, the colons were collected, and the lengths thereof were compared. Additionally, the tissue was fixed and processed to prepare a paraffin block, and H&E staining was performed to determine whether the intestinal tissue was damaged.

[6] = system: DSS-induced chronic inflammatory bowel disease; assay: Therapeutic effect in animal model of DSS-induced chronic inflammatory bowel disease; type: in vivo, ICR mice
Description: In order to confirm the therapeutic effect of the synthesized peptide in animals, chronic inflammatory bowel disease was induced with DSS in ICR mice (Orient Bio). 1.5% DSS was used as drinking water for 7 days, water not containing DSS was provided for the next 7 days, and 1.5% DSS was used as drinking water for the next 7 days (FIG. 9A). Thereafter, the peptide of SEQ ID NO: 1 was administered through SC injection. The normal group (Normal, n=9) was not treated with DSS, and the untreated group (Untreated, n=9) was treated only with DSS, and no drug was injected. The positive control group (Infliximab, 5 mg/kg, n=9) and the peptide of SEQ ID NO: 1 (30 mg/kg, n=9) were injected once daily for 14 days. 28 days after the start of DSS administration, the animals were sacrificed by CO2 hyperventilation, the colons were collected, and the lengths thereof were compared. Additionally, the tissue was fixed and processed to prepare a paraffin block, and H&E staining was performed to determine whether the intestinal tissue was damaged.

T2 sequence (Q02388 17-2944): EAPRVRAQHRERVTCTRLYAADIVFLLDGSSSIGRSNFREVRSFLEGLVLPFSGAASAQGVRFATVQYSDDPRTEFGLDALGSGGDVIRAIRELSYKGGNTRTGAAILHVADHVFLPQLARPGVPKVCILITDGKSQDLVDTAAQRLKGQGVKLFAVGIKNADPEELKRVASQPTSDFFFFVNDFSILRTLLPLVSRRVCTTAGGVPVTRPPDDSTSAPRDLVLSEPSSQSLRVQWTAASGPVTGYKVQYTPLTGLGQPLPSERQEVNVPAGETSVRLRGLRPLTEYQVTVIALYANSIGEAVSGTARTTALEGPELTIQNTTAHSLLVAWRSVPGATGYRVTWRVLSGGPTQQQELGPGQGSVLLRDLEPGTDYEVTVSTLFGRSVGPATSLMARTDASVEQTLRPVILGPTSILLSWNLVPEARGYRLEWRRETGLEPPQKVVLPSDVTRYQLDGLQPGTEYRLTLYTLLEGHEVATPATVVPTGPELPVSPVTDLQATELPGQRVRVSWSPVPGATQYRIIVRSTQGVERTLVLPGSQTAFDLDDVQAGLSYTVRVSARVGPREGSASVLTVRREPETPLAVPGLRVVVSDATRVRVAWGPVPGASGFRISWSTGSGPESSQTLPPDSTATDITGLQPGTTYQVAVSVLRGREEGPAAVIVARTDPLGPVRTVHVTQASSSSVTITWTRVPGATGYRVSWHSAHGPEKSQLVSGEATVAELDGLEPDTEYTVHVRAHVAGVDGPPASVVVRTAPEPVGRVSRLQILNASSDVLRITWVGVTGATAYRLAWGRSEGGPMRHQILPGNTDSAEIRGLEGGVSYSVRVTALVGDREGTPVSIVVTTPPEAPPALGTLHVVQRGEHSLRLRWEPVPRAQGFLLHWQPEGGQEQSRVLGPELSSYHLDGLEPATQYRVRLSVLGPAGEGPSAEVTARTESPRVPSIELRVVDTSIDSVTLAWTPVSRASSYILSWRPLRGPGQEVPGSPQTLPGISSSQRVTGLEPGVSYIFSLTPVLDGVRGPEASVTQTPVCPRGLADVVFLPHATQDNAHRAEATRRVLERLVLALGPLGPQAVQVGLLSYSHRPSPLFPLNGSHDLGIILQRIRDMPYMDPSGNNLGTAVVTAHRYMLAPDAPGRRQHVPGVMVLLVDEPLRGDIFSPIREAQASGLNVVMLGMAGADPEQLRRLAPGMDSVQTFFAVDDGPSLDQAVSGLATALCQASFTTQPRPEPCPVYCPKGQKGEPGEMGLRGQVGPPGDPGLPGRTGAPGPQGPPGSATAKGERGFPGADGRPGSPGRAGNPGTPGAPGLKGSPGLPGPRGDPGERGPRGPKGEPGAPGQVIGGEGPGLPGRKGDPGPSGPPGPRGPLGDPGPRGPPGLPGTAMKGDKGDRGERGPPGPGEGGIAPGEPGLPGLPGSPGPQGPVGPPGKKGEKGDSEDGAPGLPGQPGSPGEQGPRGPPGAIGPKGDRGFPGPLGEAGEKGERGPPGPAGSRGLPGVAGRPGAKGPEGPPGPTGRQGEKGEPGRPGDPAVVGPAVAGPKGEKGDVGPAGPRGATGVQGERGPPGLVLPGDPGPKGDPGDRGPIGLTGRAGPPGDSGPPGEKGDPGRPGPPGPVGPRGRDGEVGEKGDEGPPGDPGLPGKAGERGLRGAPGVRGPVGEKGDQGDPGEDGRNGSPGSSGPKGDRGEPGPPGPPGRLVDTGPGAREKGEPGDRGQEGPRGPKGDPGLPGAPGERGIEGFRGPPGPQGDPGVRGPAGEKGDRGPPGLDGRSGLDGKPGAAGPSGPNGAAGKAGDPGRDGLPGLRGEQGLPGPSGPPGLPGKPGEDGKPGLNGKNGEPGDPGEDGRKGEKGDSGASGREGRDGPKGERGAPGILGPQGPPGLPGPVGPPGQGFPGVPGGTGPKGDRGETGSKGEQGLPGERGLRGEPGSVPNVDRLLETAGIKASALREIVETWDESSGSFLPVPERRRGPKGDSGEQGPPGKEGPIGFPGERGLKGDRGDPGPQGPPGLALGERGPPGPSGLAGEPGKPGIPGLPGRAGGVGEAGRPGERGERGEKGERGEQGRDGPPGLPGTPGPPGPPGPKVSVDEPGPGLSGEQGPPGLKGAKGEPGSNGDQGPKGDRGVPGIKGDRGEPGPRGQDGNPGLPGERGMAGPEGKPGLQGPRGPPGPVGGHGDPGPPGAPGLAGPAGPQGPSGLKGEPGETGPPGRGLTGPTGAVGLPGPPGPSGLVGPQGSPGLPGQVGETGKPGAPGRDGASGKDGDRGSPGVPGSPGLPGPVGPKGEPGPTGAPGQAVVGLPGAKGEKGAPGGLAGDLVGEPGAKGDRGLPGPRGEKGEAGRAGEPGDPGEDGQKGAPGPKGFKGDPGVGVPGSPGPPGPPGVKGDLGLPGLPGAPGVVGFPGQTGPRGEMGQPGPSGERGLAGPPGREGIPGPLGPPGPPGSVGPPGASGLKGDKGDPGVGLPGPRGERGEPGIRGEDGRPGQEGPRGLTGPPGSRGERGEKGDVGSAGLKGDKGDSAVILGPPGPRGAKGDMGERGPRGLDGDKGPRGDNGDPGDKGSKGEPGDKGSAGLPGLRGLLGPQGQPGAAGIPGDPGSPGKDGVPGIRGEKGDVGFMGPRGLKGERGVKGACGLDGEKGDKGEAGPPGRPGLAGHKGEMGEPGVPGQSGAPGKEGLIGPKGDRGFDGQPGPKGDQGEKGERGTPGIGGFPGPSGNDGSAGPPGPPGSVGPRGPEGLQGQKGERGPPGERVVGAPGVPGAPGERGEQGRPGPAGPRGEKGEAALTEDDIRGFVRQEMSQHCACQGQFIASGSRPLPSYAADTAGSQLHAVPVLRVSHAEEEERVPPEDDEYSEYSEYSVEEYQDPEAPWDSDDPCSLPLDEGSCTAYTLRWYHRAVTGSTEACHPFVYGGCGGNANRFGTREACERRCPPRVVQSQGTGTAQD
T3 sequence (P09055 21-798): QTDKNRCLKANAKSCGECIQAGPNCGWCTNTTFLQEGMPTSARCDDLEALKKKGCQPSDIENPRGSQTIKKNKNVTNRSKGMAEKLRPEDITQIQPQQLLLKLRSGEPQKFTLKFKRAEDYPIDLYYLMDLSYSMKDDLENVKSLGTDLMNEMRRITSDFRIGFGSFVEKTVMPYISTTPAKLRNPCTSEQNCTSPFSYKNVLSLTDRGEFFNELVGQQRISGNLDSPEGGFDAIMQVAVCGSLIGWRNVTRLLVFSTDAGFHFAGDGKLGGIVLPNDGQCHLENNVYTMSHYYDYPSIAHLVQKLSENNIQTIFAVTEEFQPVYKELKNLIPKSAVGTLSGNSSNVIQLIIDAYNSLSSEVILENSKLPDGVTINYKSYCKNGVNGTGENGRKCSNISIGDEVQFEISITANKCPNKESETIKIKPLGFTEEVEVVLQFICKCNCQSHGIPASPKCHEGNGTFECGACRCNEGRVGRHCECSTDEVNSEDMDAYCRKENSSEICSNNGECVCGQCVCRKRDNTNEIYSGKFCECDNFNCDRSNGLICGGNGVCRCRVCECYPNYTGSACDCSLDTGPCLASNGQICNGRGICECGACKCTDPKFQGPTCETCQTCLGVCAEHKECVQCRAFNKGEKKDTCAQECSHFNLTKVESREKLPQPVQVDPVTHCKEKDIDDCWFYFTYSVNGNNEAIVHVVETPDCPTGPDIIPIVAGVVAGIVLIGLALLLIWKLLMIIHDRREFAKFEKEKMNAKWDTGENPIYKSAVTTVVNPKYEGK

| Compound | gene expression of E-cadherin (E-cadherin) | binding to type IV collagen (type IV collagen) | peptide concentration at which binding to type I collagen was observed (type I collagen) [µg/mL] | migration area (Caco-2 cells) [%] | cell migration compared to cells not treated with the peptide (Caco-2 cells) | cell proliferation rate compared to the control group (cells not treated with the peptide) [1] [%] | selectivity to type VII collagen versus types I and IV collagen (type VII collagen [3]) | peptide concentration at which binding to type VII collagen was observed (type VII collagen [3]) | gene expression of ZO-1 (ZO-1) | fluorescence in small intestine and colon (IVIS) [4] | also measured |
| --- | --- | --- | --- | --- | --- | --- | --- | --- | --- | --- | --- |
| LTEFPLRMRDWLKN (Human osteonectin 160-173) [SEQ ID NO: 3] | increased with an increase in the concentration of the peptide | did not bind | 100 | 56 | increased cell migration | 51 | higher selectivity to type VII collagen | at least 10 μg/mL | increased with an increase in the concentration of the peptide |  | peptide concentration at which the ability to bind to type VII collagen was confirmed (type VII collagen [2]): ≥ 5 µg/mL |
| YGLRSKSKKFRRPDIQYPDAT-NH2 (C-terminus assumed) [SEQ ID NO: 1] |  |  |  |  |  |  |  |  |  | red fluorescence was constantly observed in the small intestine and colon from the initial 30 minutes to 180 minutes | localization of peptide in DSS-induced mouse colon (integrin beta 1; 5% DSS 7 days): detected in colon tissue; localization of peptide in normal colon (integrin beta 1): does not show any localization |
| O=C(CCCCCCC(=O)Nc1ccccc1)NO [SAHA] |  |  |  |  |  |  |  |  |  |  | colon length ([5]; 5% DSS 7 days, IP once daily, SEQ ID NO: 1 50 mg/kg, SAHA 25 mg/kg, antibody 1 mg/kg, p<0.05 vs untreated, FIG. 8): maintained the colon length; inflammatory cells in the intestinal mucosa (H&E histology) ([5]; acute DSS model, FIG. 8 part c): significantly decreased; villi structure (H&E histology) ([5]; acute DSS model, FIG. 8 part c): villi structure was maintained well |
| RPRYYLYKHAYFYPHLKRFP (human bone sialoprpotein II 41-60) [SEQ ID NO: 2, Human bone sialoprotein II 41-60] | increased with an increase in the concentration of the peptide | did not bind | 50 | 75 | increased cell migration | 56 | higher selectivity to type VII collagen | at least 20 μg/mL | increased with an increase in the concentration of the peptide |  |  |
| infliximab |  |  |  |  |  |  |  |  |  |  | inflammatory cells in the intestinal mucosa (H&E histology) ([6]; FIG. 9G): inflammatory cells in the intestinal mucosa were observed; villi structure (H&E histology) ([6]; FIG. 9G): some improvement compared to the untreated group, but villous damage; colon length ([6]; SEQ ID NO: 1 30 mg/kg SC, infliximab 5 mg/kg, once daily 14 days, p<0.05 vs untreated, FIG. 9D): maintained the colon length |
| Cy5.5 [reference compound] |  |  |  |  |  |  |  |  |  | almost no fluorescence was observed at 180 minutes |  |
